# Laboratory results as given in patent US9134309B2, “Polypeptide display libraries and methods of making and using thereof” (The Regents of the University of California, priority 2003, dated 2015).
# Target: T1, streptavidin (Streptomyces avidinii, UniProt P22629)
# T1 construct: purchased Molecular Probes (Eugene, Oreg.)
# Assay: dissociation of SA-1 peptide grafted into YFP from streptavidin coated beads, flow cytometry
# Format: binding
# Settings: SA-1 inserted into YFP after Y145, soluble fusion protein, 1 μM biotin
# Description: See Baird, G. S. et al. (1999) PNAS USA 96(20):11241-11246, which is herein incorporated by reference. […] See Bessette, P. H., et al. (1999) PNAS USA 96(24):13703-13708, which is herein incorporated by reference. […] Using flow cytometry, the dissociation rate constant of the steptavidin binding fluorescent protein was determined to be 0.02 s^−1.
# The soluble protein was isolated using B-PER II bacterial protein extraction reagent (Pierce Biotechnology, Rockford, Ill.) following the manufacturer's protocol. About 10^7 streptavidin coated magnetic beads (Dynal Inc., Brown Deer, Wis.) were added to 40 μl of cell lysate and equilibrated at room temperature for 20 minutes. The beads were washed once in 2 ml of PBS; biotin was added to a final concentration of 1 μM, and immediately analyzed by flow cytometry as above. Lysate from a strain expressing YFP with a T7•tag insertion at the same location was used as a negative control.
# T1 sequence (P22629 25-183): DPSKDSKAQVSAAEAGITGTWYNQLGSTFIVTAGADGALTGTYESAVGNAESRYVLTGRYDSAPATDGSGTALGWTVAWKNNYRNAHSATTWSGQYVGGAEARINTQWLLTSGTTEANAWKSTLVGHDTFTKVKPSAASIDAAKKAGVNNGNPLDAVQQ
sequence,measurement,value
RLEICQNVCYYLGTL [SA-1],dissociation rate constant,0.02 s⁻¹
